Measurements from ChEMBL document CHEMBL1145715, “Massetolides A-H, antimycobacterial cyclic depsipeptides produced by two pseudomonads isolated from marine habitats” (J Nat Prod, 1997).
≈ marks a conversion by molar mass, not a printed value. Calls of active or inactive are those of the source. The calls are words filed in the database; no cut-off is given here.

Key:
Escherichia coli = experiment: Antibacterial activity against Escherichia coli by middle-brook 7H10 agar proportion method; format: functional, organism-based
Staphylococcus aureus = experiment: Antibacterial activity against Staphylococcus aureus by middle-brook 7H10 agar proportion method; format: functional, organism-based
Mus musculus = experiment: Toxicity in mouse at 10 mg/kg, ip; format: organism-based; set-up: dose 10 mg/kg, route intraperitoneal; settings: in vivo
[1] = tested on: Mycobacterium tuberculosis; experiment: Antimycobacterial activity against Mycobacterium tuberculosis by middle-brook 7H10 agar proportion method; format: functional
[2] = tested on: Mycobacterium avium-intracellulare; experiment: Antimycobacterial activity against Mycobacterium avium-intracellulare by middle-brook 7H10 agar proportion method; format: functional

CCCCCCC[C@H](O)CC(=O)N[C@@H](CC(C)C)C(=O)N[C@H](CCC(=O)O)C(=O)N[C@H]1C(=O)N[C@H]([C@H](C)CC)C(=O)N[C@@H](CC(C)C)C(=O)N[C@H](CO)C(=O)N[C@@H](CC(C)C)C(=O)N[C@H](CO)C(=O)N[C@@H]([C@H](C)CC)C(=O)O[C@@H]1C
Activity (Escherichia coli): inactive
Activity (Staphylococcus aureus): inactive

CCCCCCC[C@H](O)CC(=O)N[C@@H](CC(C)C)C(=O)N[C@H](CCC(=O)O)C(=O)N[C@H]1C(=O)N[C@H]([C@@H](C)CC)C(=O)N[C@@H](CC(C)C)C(=O)N[C@H](CO)C(=O)N[C@@H](CC(C)C)C(=O)N[C@H](CO)C(=O)N[C@@H]([C@@H](C)CC)C(=O)O[C@@H]1C [MASSETOLIDE A]
Activity (Mus musculus): Non-toxic
MIC [1]: 5 µg/mL (≈ 4.38 µM)
MIC [2]: 2.5 µg/mL (≈ 2.19 µM)
